The structures appear in SMILES notation.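 Interpolation was linear, between the two tested concentrations surrounding the appropriate level; five concentrations were tested over 48 hours in 96-well plates. GI50: concentration for 50% inhibition of growth. TGI denotes the concentration required for complete inhibition of growth.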

Among the test systems are LOX IMVI melanoma; HCT-116 colon; TK-10 renal; SN12C renal; NCI-H460 lung; ACHN renal; 786-0 renal; SW-620 colon.
What all share (assay): NCI tumour cell line growth inhibition, 48 h

Take `O=C1/C(=C(/c2ccccc2)N2CCOCC2)Cc2ccccc21`: the GI50 in the assay on LOX IMVI melanoma is 0.92 µM; with HCT-116 colon it was 0.919 µM; with TK-10 renal, 1.29 µM; with SN12C renal, 2.16 µM; in the assay on NCI-H460 lung, 4.52 µM; in the assay on ACHN renal, 1.64 µM. For the same compound, the GI50 was 1.98 µM with 786-0 renal and 1.2 µM in the assay on SW-620 colon. The TGI in the assay with LOX IMVI melanoma was determined as 2.52 µM; with HCT-116 colon it was 2.44 µM; in the assay on TK-10 renal, 2.66 µM; with SN12C renal, 6.33 µM; with NCI-H460 lung, 18.6 µM; in the assay on ACHN renal, 3.69 µM. For the same compound, the TGI in the assay with 786-0 renal was 3.81 µM; in the assay with SW-620 colon, 2.65 µM.
`CCCC(CCC)NCC(O)c1cc(-c2ccc(C(F)(F)F)cc2)nc(C(F)(F)F)c1` (stereo not drawn): the GI50 is 1.53 µM in the assay with LOX IMVI melanoma; 1.66 µM in the assay with HCT-116 colon; 1.98 µM in the assay on TK-10 renal; 1.69 µM with SN12C renal; 1.77 µM in the assay on NCI-H460 lung; 1.63 µM with ACHN renal. The values for the GI50 with 786-0 renal and with SW-620 colon were 1.37 µM and 1.57 µM, respectively. Besides, the TGI in the assay on LOX IMVI melanoma stood at 2.97 µM; in the assay with HCT-116 colon it was 3.24 µM; in the assay with TK-10 renal, 3.44 µM; with SN12C renal, 3.2 µM; with NCI-H460 lung, 3.4 µM; with ACHN renal, 3.16 µM. The TGI is 2.9 µM with 786-0 renal and 3.05 µM in the assay on SW-620 colon.
`Cc1cc(C)c(NC(=O)c2sc3nc4c(cc3c2N)C(=O)CCC4)c(C)c1`: the GI50 in the assay on LOX IMVI melanoma was 5.39 µM; with HCT-116 colon, 3.85 µM; in the assay on TK-10 renal, 4.5 µM; in the assay with SN12C renal it was 7.42 µM; in the assay on NCI-H460 lung, 1.56 µM; in the assay on ACHN renal, 6.11 µM. Further, the GI50 was 6.85 µM in the assay with 786-0 renal and 2.87 µM with SW-620 colon. In addition, the TGI with LOX IMVI melanoma was greater than 100 µM; with HCT-116 colon it was greater than 100 µM; in the assay on TK-10 renal, greater than 87.9 µM; in the assay on SN12C renal, greater than 100 µM; with NCI-H460 lung, 21.2 µM; with ACHN renal, greater than 100 µM. For the same compound, the TGI in the assay on 786-0 renal and with SW-620 colon was greater than 100 µM throughout.
In the case of `COc1ccc(-c2[nH]c3ccc(OC)cc3c2/C=C(\C#N)S(=O)(=O)c2ccccc2)cc1`, the GI50 with LOX IMVI melanoma is 1.15 µM; in the assay with HCT-116 colon it was 0.53 µM; with TK-10 renal, 4.56 µM; in the assay on SN12C renal, 2.2 µM; with NCI-H460 lung, 0.659 µM; with ACHN renal, 1.79 µM. Further, the figures for the GI50 in the assay with 786-0 renal and with SW-620 colon were 2.03 µM and 0.534 µM, respectively. Moreover, the TGI in the assay with LOX IMVI melanoma is greater than 100 µM; in the assay with HCT-116 colon, greater than 100 µM; in the assay on TK-10 renal it was greater than 100 µM; in the assay with SN12C renal, greater than 100 µM; with NCI-H460 lung, greater than 26 µM; in the assay with ACHN renal, greater than 100 µM. The TGI with 786-0 renal and with SW-620 colon was greater than 100 µM each time.
In the case of `c1ccc(Sc2ccc(Cc3nc4cc5ccccc5cc4[nH]3)cc2)cc1`, the GI50 in the assay with LOX IMVI melanoma was 1.42 µM; in the assay with HCT-116 colon it was 2.98 µM; in the assay with TK-10 renal, 0.456 µM; with SN12C renal, 16.8 µM; in the assay on NCI-H460 lung, 0.21 µM; with ACHN renal, 13.2 µM. Further, the GI50 with 786-0 renal was 4.77 µM; with SW-620 colon, 8.38 µM. In addition, the TGI was 29.1 µM with LOX IMVI melanoma; 20.7 µM in the assay with HCT-116 colon; 18 µM with TK-10 renal; 76.5 µM in the assay with SN12C renal; greater than 100 µM with NCI-H460 lung; greater than 75.1 µM with ACHN renal. For the same compound, the TGI was greater than 63.8 µM in the assay on 786-0 renal and greater than 67.6 µM in the assay with SW-620 colon.
`COc1ccc(-c2nc3ccccn3c2/C=C/C(=O)c2cc(OC)c(OC)c(OC)c2)cc1OC`: the GI50 with LOX IMVI melanoma was 2.26 µM; in the assay with HCT-116 colon, 2.62 µM; in the assay with TK-10 renal, 3.28 µM; with SN12C renal it was 4.1 µM; with NCI-H460 lung, 2.99 µM; in the assay on ACHN renal it was 3.22 µM. The GI50 in the assay on 786-0 renal was 3.74 µM; in the assay on SW-620 colon, 2.78 µM. In addition, the TGI with LOX IMVI melanoma turned out to be 6.62 µM; with HCT-116 colon, 12 µM; in the assay on TK-10 renal, 8.74 µM; with SN12C renal it was 83.7 µM; in the assay with NCI-H460 lung it was 12.6 µM; in the assay on ACHN renal it was 15.7 µM. Also, the TGI amounted to 71 µM with 786-0 renal and 55.6 µM in the assay on SW-620 colon.
Regarding `COc1ccc(C[N+](C)(C)N)cc1OC`, the GI50 with LOX IMVI melanoma, in the assay on HCT-116 colon, in the assay on TK-10 renal, in the assay with SN12C renal, in the assay on ACHN renal and in the assay with 786-0 renal was greater than 100 µM in each case. Further, in the assay on SW-620 colon, the GI50 is greater than 100 µM. Also, the TGI in the assay with LOX IMVI melanoma, with HCT-116 colon, in the assay with TK-10 renal, with SN12C renal, in the assay with NCI-H460 lung and in the assay on ACHN renal was greater than 100 µM each time. In addition, the TGI in the assay with 786-0 renal and in the assay with SW-620 colon was greater than 100 µM throughout.
Take `CCNCCNc1cc(-c2ccc(C(F)(F)F)cc2)c(C#N)c2nc3ccccc3n12`: the GI50 in the assay with LOX IMVI melanoma was 0.185 µM; in the assay on HCT-116 colon it was 0.388 µM; in the assay on TK-10 renal, 2.14 µM; in the assay with SN12C renal, 1.34 µM; with NCI-H460 lung, 1.22 µM; in the assay with ACHN renal, 1.24 µM. The GI50 in the assay on 786-0 renal is 1.57 µM; in the assay on SW-620 colon it was 1.22 µM. The TGI with LOX IMVI melanoma was found to be 0.382 µM; in the assay with HCT-116 colon it was 1.32 µM; in the assay with TK-10 renal, 3.76 µM; in the assay with SN12C renal it was 2.83 µM; with NCI-H460 lung, 2.73 µM; with ACHN renal, 2.64 µM. Besides, the TGI in the assay with 786-0 renal turned out to be 3.06 µM; with SW-620 colon, 2.75 µM.
Turning to `COc1cc2ncnc(-n3ncc4cc(NC(=O)Nc5ccccc5)ccc43)c2cc1OC`, the GI50 was 0.722 µM in the assay with LOX IMVI melanoma; 1.41 µM in the assay on HCT-116 colon; 0.724 µM in the assay with TK-10 renal; 1.14 µM with SN12C renal; 0.706 µM in the assay with NCI-H460 lung; 1.63 µM with ACHN renal. Besides, the GI50 with 786-0 renal is 1.3 µM; in the assay with SW-620 colon, 3.07 µM. The TGI in the assay with LOX IMVI melanoma worked out at 2.75 µM; in the assay with HCT-116 colon it was 4.82 µM; with TK-10 renal it was 2.56 µM; with SN12C renal, 5.78 µM; in the assay on NCI-H460 lung, 16.4 µM; in the assay with ACHN renal it was 11.1 µM. Further, the figures for the TGI with 786-0 renal and in the assay on SW-620 colon were 4.34 µM and 17.9 µM, respectively.

Source of the values: PubChem BioAssay (NCI).
